Measured values from patent US20260256140A1, “BIPHENYL COMPOUNDS CONTAINING SUBSTITUTED SULFIDE (SULFOXIDE) GROUPS AND USES THEREOF” (METISA BIOTECHNOLOGY CO., LTD, priority 2021, published 2026).

Assays:
Assay type in all cases: in vivo
[1] = system: Mythimna separata; assay: Activity against Mythimna separata, Airbrush spray on maize leaf pieces; conditions: 500 mg/L, 3 days after administration, 3rd-instar larvae
Procedure: Insecticidal activity determination experiments were conducted on several insects using the compound of the present invention and control compounds KC1, KC2, and KC3. Determination methods were described below. The compounds to be determined were each dissolved in a mixed solvent of acetone/methanol (1:1), and diluted using water containing 0.1% (wt) tween-80 to desired concentrations. With Mythimna separata and Plutella xylostella as targets, Airbrush spray method was adopted for activity determination. Determination Method: maize leaves were cut into 2 cm leaf pieces, and the front and back of each leaf piece were sprayed under an Airbrush spray treatment pressure of 10 psi (approximate to 0.7 kg/cm^2) and with a spray volume of 0.5 mL. After drying in the shade, 10 3rd-instar larvae were inoculated for each treatment, and each treatment was repeated for 3 times. After the treatment, the leaf pieces were put into an observation chamber at 25° C. and with a relative humidity of 60% to 70%, and the number of living larvae was investigated 3 days after the administration of the compounds, and the death rates were calculated.

[2] = system: Plutella xylostella; assay: Activity against Plutella xylostella, Airbrush spray on cabbage leaf discs; conditions: 500 mg/L, 3 days after administration, 3rd-instar larvae
Procedure: Insecticidal activity determination experiments were conducted on several insects using the compound of the present invention and control compounds KC1, KC2, and KC3. Determination methods were described below. The compounds to be determined were each dissolved in a mixed solvent of acetone/methanol (1:1), and diluted using water containing 0.1% (wt) tween-80 to desired concentrations. With Mythimna separata and Plutella xylostella as targets, Airbrush spray method was adopted for activity determination. Determination Method: cabbage leaves were formed into leaf discs having a diameter of 2 cm using a puncher, and the front and back of each leaf disc were sprayed under an Airbrush spray treatment pressure of 10 psi (approximate to 0.7 kg/cm^2) and with a spray volume of 0.5 mL. After drying in the shade, 10 3rd-instar larvae were inoculated for each treatment, and each treatment was repeated for 3 times. After the treatment, the leaf discs were placed into an observation chamber at 25° C. and with a relative humidity of 60% to 70%, and the number of living larvae was investigated 3 days after the administration of the compounds, and the death rates were calculated.

[3] = system: Tetranychus cinnabarinus; assay: Greenhouse acaricidal activity determination on Phaseolus vulgaris seedlings; conditions: 3 days after administration, parallel comparison
Procedure: Greenhouse acaricidal activity determination was carried out on the compounds of the present invention. A determination method was described below. […] Two true leaves of Phaseolus vulgaris seedlings were inoculated with adult Tetranychus cinnabarinus and a basic number was investigated. An entire seedling was then sprayed using a hand-held sprayer. Each treatment was repeated for 3 times. After the treatment, the seedlings were placed into a standard observation chamber, and the number of living mites was investigated 72 hours later, and the death rates were calculated. Parallel comparison experiments on acaricidal activity were conducted for Tetranychus cinnabarinus using the compounds 1.22, 1.23, and 1.24 and control compounds (3 days after the administration of the compounds), and the determination method was as described above; and the results were shown in Table 14: […]

SMILES | death rate for Mythimna separata [1] [%] | death rate for Plutella xylostella [2] [%] | Death Rate (%, 3 days after the administration of the compounds) 1.25 mg/L [3] [%] | Death Rate (%, 3 days after the administration of the compounds) 2.5 mg/L [3] [%]
Cc1cc(F)c(-c2cc(SCC(F)(F)F)c(C)cc2F)cc1SCC(F)(F)F [KC1] | 0 | 0 | 22.9 | 52.0
Cc1cc(F)c(-c2cc([S+]([O-])CC(F)(F)F)c(C)cc2F)cc1SCC(F)(F)F (stereo not drawn) [KC2] | 0 | 0 | 0 | 50.0
Cc1cc(F)c(-c2cc([S+]([O-])CC(F)(F)F)c(C)cc2F)cc1[S+]([O-])CC(F)(F)F (stereo not drawn) [KC3] | 0 | 0 | 0 | 0
